Reference: article PMC11161644, “An effective and rapidly degradable disinfectant from disinfection byproducts” (Nature Communications, 2024)
Values joined by “and” are separate entries in the source; they are usually repeats but may differ in a detail not shown here. Identical values can stand only once.

Experiments:
[1] = Real-time stability testing of 2,6-DCQ (solid form, 2-propanol solution); format: physicochemical; details: for Time remaining stable: room temperature
Procedure: According to the U.S. Food and Drug Administration guidance, 2,6-DCQ in solid form or solution form (using 2-propanol as the solvent, a common ingredient in antiseptic liquids and hand sanitizers) was kept at room temperature (22 ± 1 °C) and 65 ± 5% of relative humidity for stability testing. The concentrations of 2,6-DCQ at different storage times were determined by an Agilent HPLC equipped with a UV detector at 280 nm. A disinfectant product is considered stable for a certain storage time if its concentration remains ≥90% of the initial concentration.

[2] = system: freshwater fish; set-up: method as in earlier work; details: USEPA; cited from earlier work

| SMILES | Time remaining stable ([1]; in 2-propanol) | Time remaining stable ([1]; solid form) | C/C0 ([1]; solid form, storage time 0 month) | C/C0 ([1]; solid form, storage time 16 month) | C/C0 ([1]; solid form, storage time 36 month) | C/C0 ([1]; solution form (2-propanol), storage time 0 month) | C/C0 ([1]; solution form (2-propanol), storage time 2.5 month) | C/C0 ([1]; solution form (2-propanol), storage time 7 month) | C/C0 ([1]; solution form (2-propanol), storage time 10 month) | C/C0 ([1]; solution form (2-propanol), storage time 12.5 month) | Toxicity rating to freshwater fish [2] |
| --- | --- | --- | --- | --- | --- | --- | --- | --- | --- | --- | --- |
| O=C1C=C(Cl)C(=O)C(Cl)=C1 [2,6-DCQ, 2,6-dichlorobenzoquinone] | over 7 months | over 36 months | 1 | 1.072 and 1.01 | 1.029 and 1.0188 | 1 | 0.9898 | 0.9151 | 0.8855 | 0.8301 |  |
| Cc1cc(O)cc(C)c1Cl [PCMX, para-chloro-meta-xylenol, reference compound] |  |  |  |  |  |  |  |  |  |  | highly toxic |
